Measured values reported in article PMC5308254, “Bioactivity of Natural and Engineered Antimicrobial Peptides from Venom of the Scorpions Urodacus yaschenkoi and U. manicatus” (Toxins, 2017).
No end group written: not given here.

Key:
[1] = system: L. grayi (DSM20601); assay: Growth inhibition assay (MIC), L. grayi; assay type: cell-based, Listeria grayi; details: 384-well plates, BHIB, 37 °C, peptide 0.015–250 µM; growth totally inhibited; average of n ≥ 3; dash = no inhibition
Protocol: (§1) The minimal inhibitory concentration (MIC) of each AMPs was determined against the Gram-positive bacteria Listeria monocytogenes (DSM20600), L. grayi (DSM20601), L. fleischmannii (DSM24998), Staphylococcus aureus (DSM2569) and Micrococcus luteus (DSM20030), and the Gram-negative species Escherichia coli (D31) and Pseudomonas aeruginosa (DSM50071). The scorpion peptides were prepared at concentrations of 0.015–250 μM. The assays were carried out in 384-well plates (Greiner Bio One, Frickenhausen, Germany) using Brain Heart Infusion Broth (BHIB) medium for Listeria spp., Tryptic Soy Broth (TSB) for S. aureus, and lysogeny broth (LB) for the others. The bacteria were cultivated overnight at either 37 °C (Listeria spp., S. aureus, E. coli and P. aeruginosa) or 30 °C (M. luteus) and subcultured in fresh media before the growth inhibition assays. Growth inhibition was measured as previously described.

[2] = system: Escherichia coli (D31); assay: Growth inhibition assay (MIC), E. coli; assay type: cell-based; details: 384-well plates, LB, 37 °C, peptide 0.015–250 µM; growth totally inhibited; average of n ≥ 3; dash = no inhibition
Protocol: as §1

[3] = system: Listeria monocytogenes (DSM20600); assay: Growth inhibition assay (MIC), L. monocytogenes; assay type: cell-based; details: 384-well plates, BHIB, 37 °C, peptide 0.015–250 µM; growth totally inhibited; average of n ≥ 3; dash = no inhibition
Protocol: as §1

[4] = system: Staphylococcus aureus (DSM2569); assay: Growth inhibition assay (MIC), S. aureus; assay type: cell-based; details: 384-well plates, TSB, 37 °C, peptide 0.015–250 µM; growth totally inhibited; average of n ≥ 3; dash = no inhibition
Protocol: as §1

[5] = system: Micrococcus luteus (DSM20030); assay: Growth inhibition assay (MIC), M. luteus; assay type: cell-based; details: 384-well plates, LB, 30 °C, peptide 0.015–250 µM; MIC = concentration at which growth was totally inhibited; average of n ≥ 3; dash = no inhibition
Protocol: as §1

[6] = system: pig erythrocytes; assay: Hemolytic activity on pig erythrocytes; assay type: cell-based; details: for HC10 (hemolytic concentration) / HC90 (hemolytic concentration) / HC50 (hemolytic concentration) / percentage of hemolysis: 1 h at 37 °C; for HC10 (hemolytic concentration) / HC90 (hemolytic concentration) / HC50 (hemolytic concentration): 6.25–100 µM, absorbance 570 nm, non-linear fit; for HC10 (hemolytic concentration) / HC90 (hemolytic concentration): n ≥ 3; for HC50 (hemolytic concentration): n ≥ 3, n.c. (100) = not convergent at 100 µM; for percentage of hemolysis: 100 µM peptide (highest tested), 10% Triton X-100 = 100% hemolysis
Protocol: The hemolytic activity of each AMP was determined using pig erythrocytes. Serial dilutions (6.25–100 µM) of each AMP were prepared, and after incubation for 1 h at 37 °C the cells were centrifuged and the absorbance of the supernatant was measured at 570 nm using an Eon Microplate Spectrophotometer (BioTek Instruments, Winooski, VT, USA). Three independent experiments were carried out for each concentration in triplicate. PBS and 10% Triton X–100 were used as negative and positive controls, respectively. The percentage hemolysis was calculated using the formula 100((Apeptide–APBS)/(Atriton–APBS)). The AMP concentration causing 50% hemolysis (HC50) of the pig erythrocytes was determined by non-linear regression with the data fitted to the logistical sigmoidal equation, using GraphPad Prism v5.0 (GraphPad Software, San Diego, CA, USA) (Figure S2).

[7] = system: L. fleischmannii (DSM24998); assay: Growth inhibition assay (MIC), L. fleischmannii; assay type: cell-based, Listeria fleischmannii; details: 384-well plates, BHIB, 37 °C, peptide 0.015–250 µM; growth totally inhibited; average of n ≥ 3; dash = no inhibition
Protocol: as §1

[8] = system: baby hamster kidney cells (BHK21); assay: Cytotoxicity, alamarBlue, BHK-21 cells; assay type: cell-based; details: 2 h at 37 °C, 0.1–100 µM, alamarBlue fluorescence, non-linear fit, n ≥ 3
Protocol: (§2) Cytotoxicity was evaluated using the baby hamster kidney cell line (BHK-21) included in F2H®-Kit Basic (Chromotek, Planegg-Martinsried, Germany). The BHK-21 cells were grown in 25-cm^2 cell culture flasks (Greiner Bio One, Frickenhausen, Germany) containing Dulbecco’s Modified Eagle’s Medium (DMEM) supplemented with 4.5 g/L glucose, 110 mg/L sodium pyruvate and L-glutamine, and 10% fetal bovine serum (FBS), and were maintained in an NU-5810 incubator (ibs tecnomara, Fernwald, Germany) at 37 °C with a 5% CO2 atmosphere. The cells were subcultured at ~90% confluence by detaching with 0.25% trypsin and 0.03% EDTA (Sigma-Aldrich, St Louis, MO, USA). The AMPs were dissolved in water and diluted to final concentrations of 0.1, 1, 10 and 100 µM in DMEM.
(§3) BHK-21 cells were prepared and tested as previously described. Confluent cells were detached, counted and seeded at a concentration of 8.5 × 10^4 cell/mL in a 96-well culture plate (Greiner Bio One-Cell Star) 48 h before each experiment. The cells were rinsed with 100 µL PBS before adding 100 µL of the AMP solution and incubating for 2 h at 37 °C. The AMP solution was then removed and the cells were rinsed again with PBS before staining with 10% v/v alamarBlue™ Dye (Thermo Fisher Scientific, Schwerte, Germany) in DMEM for 1 h. The fluorescence of the metabolized alamarBlue™ Dye was measured in an Eon microplate reader using excitation and emission filters of 528 and 590 nm, respectively. DMEM and cells exposed to DMEM without AMPs were included as a blank reference and negative control, respectively. Four independent experiments were carried out for each AMP concentration in triplicate. To assess the percentage of viable cells compared to the control, the data were analyzed with GraphPad Prism v5.0 software using non-linear regression to fit the curve (Figure S2). The EC50 was reported as the AMP concentration that reduces cell viability by 50%.

[9] = Cytotoxicity, alamarBlue, BHK-21 cells; assay type: cell-based, hamster; details: hamster, 2 h at 37 °C, 0.1–100 µM, alamarBlue fluorescence, non-linear fit, concentration reducing viability by 50%, n ≥ 3, read-out: EC50 (effective cytotoxic concentration)
Protocol: as §2, §3

[10] = system: seven different bacteria; assay: Antibacterial activity against all seven bacteria tested (summary); assay type: cell-based; details: approximate overall value
Protocol: as §1

| Substance | MIC L. grayi [1] [µM] | MIC E. coli [2] [µM] | MIC L. monocytogenes [3] [µM] | MIC S. aureus [4] [µM] | MIC M. luteus [5] [µM] | HC10 (hemolytic concentration) [6] [µM] | HC90 (hemolytic concentration) [6] | HC50 (hemolytic concentration) [6] [µM] | MIC L. fleischmannii [7] [µM] | EC10 (effective cytotoxic concentration) [8] [µM] | EC90 (effective cytotoxic concentration) [8] [µM] | CC50 at 2 h [9] [µM] | percentage of hemolysis [6] | hemolytic activity (in words) [6] | MIC against all seven bacteria tested [10] |
| --- | --- | --- | --- | --- | --- | --- | --- | --- | --- | --- | --- | --- | --- | --- | --- |
| GFWGKLWEGVKSAI-NH2 [Um3] | 4 | 15 | 8 | 15 | 2 | 70.48 | 246.84 µM | 126.2 | 4 | 2.359 | 191.1 | 63.7 |  |  |  |
| FLSTIWNGIKSLF-NH2 [D2] |  |  | 15 | 8 | 4 | 2.94 | 200.83 µM | 24.48 | 15 | 13.95 | 1130 | 377 | 64% |  |  |
| ILSAIWSGIKSLF-NH2 [UyCT3] | 8 | 8 | 4 |  | 4 | 15.78 | 214.22 µM | 58.15 | 4 | 0.57 | 46.12 | 15.4 |  |  |  |
| IFGAIWSGIKSLF-NH2 [D1] | 8 | 8 | 4 |  | 4 | 15.50 | 148.51 µM | 48 | 4 | 0.69 | 55.75 | 18.6 |  |  |  |
| FPFLLSLIPSAISAIKRL-NH2 [Uy234] | 4 |  | 2 |  | 2 | 55.14 | 198.04 µM | 104.50 |  | 0.23 | 18.86 | 6.29 |  |  |  |
| FFSALLSGIKSLF-NH2 [Um4] | 15 | 8 | 8 | 15 | 8 |  |  |  | 4 | 3.22 | 261 | 87 |  |  |  |
| GFWGKLWKPVKKAI-NH2 [D4] | 8 |  | 30 |  | 2 |  |  |  | 15 | 36.30 | 2940 | 980 |  | no hemolytic activity |  |
| ISQSDAILSAIWSGIKSLF-NH2 [Um2] |  |  |  |  | 4 | 2.36 | 7033.22 µM | 129 |  | 0.58 | 47.12 | 15.7 |  |  |  |
| GFWGKLLEGVKKAI-NH2 [D5] | 8 | 15 | 15 |  | 8 | 110.86 | 24,141.72 µM | 1636 | 15 | 2.50 | 202.90 | 67.6 | ~ 10% |  |  |
| IFKAIWSGIKSLF-NH2 [Um5] | 2 | 15 | 2 |  | 2 | 11.944 | 293.90 µM | 59.25 | 2 | 0.36 | 29.12 | 9.71 |  |  |  |
| IWSAIWSGIKGLL-NH2 [UyCT5] | 8 | 15 | 4 | 8 | 4 | 2.39 | 177.49 µM | 20.59 | 8 | 0.91 | 73.65 | 24.6 | 70% |  |  |
| FPFLKLSLKIPKSAIKSAIKRL-NH2 [D10] | 8 | 8 | 30 |  | 0.25 | 149.75 | 19,894.17 µM | 1726 | 30 | 5.24 | 424.30 | 141 | ~ 10% |  |  |
| FLSTIWNGIKGLL-NH2 [Uy192] | 15 | 15 | 8 | 15 | 15 | 35.85 | 675.22 µM | 155.6 | 4 | 1.92 | 155.90 | 52 |  |  |  |
| GFWKGKLWKEGVKNAIK [D12, engineered AMP based on UyCT1 but with distributed lysine residues] |  |  |  |  |  |  |  |  |  |  |  |  |  |  | totally inactive |
| ILSAIWSGIKGLL-NH2 [Uy17] |  |  | 15 | 30 | 15 | 26.65 | 718.55 µM | 138.40 |  | 2.73 | 220.80 | 73.6 |  |  |  |
